Assay results published in patent US8530446B2, “Oral composition containing difructose anhydride” (Fancl Corporation, priority 2004, dated 2013).

System: equol production in the intestinal tract
Assay: Ability of DFA to increase equol production in the intestinal tract of rats (plasma equol by HPLC-UV)
Type: in vivo, Wistar-ST rats
Conditions: 20 days
From the text: The ability of DFA to increase equol production in the intestinal tract was examined.
Twenty-seven male Wistar-ST rats (six weeks old) were raised with a solid feed for three days, after which they were divided into three groups by weight so that each group consisted of nine rats. Each group was given a base feed containing 0.25% of a food product containing 40% isoflavone (basal diet group), a feed consisting of the base feed whose sucrose was substituted by 3% with DFAIII (DFAIII group), or a feed consisting of the base feed whose sucrose was substituted by 3% with fructo-oligosaccharide (FOS group), and raised for twenty days. On day 20, blood was taken from each rat through the caudal vein and the equol level in blood plasma was measured using the HPLC-UV method.
In the table, a and b indicate that values denoted by different symbols have a significant difference between them.

SMILES: OC[C@H]1O[C@@]2(CO[C@]3(CO)O[C@H](CO)[C@@H](O)[C@@H]3O2)[C@@H](O)[C@@H]1O [DFAIII, difructose anhydride]
- Equol (equol level in blood plasma) (male Wistar-ST rats, n=9/group, base feed with 0.25% of food product containing 40% isoflavone, sucrose substituted by 3% with test substance, caudal vein blood on day 20, HPLC-UV): 17.7 ± 1.81 µmol

SMILES: OC[C@H]1O[C@@]2(CO[C@]3(CO)O[C@H](CO)[C@@H](O)[C@@H]3O2)[C@@H](O)[C@@H]1O [DFA, difructose anhydride]
- Effect of ingestion on equol level in blood plasma (in words) (rats, 3% in isoflavone-containing feed): caused the equol level in blood plasma to rise
